Measurements taken from patent publication US10583206B2, “Radioactive probe for detecting hydrogen sulfide” (KYUNGPOOK NATIONAL UNIVERSITY INDUSTRY-ACADEMIC COOPERATION …, priority 2015, dated 2020).

Tests used:
Arthritis model = assay: Imaging in arthritis model; type: in vivo, DBA/1J mice
Protocol: An arthritis inducer, bovine type II collagen was intradermally injected into the tails of DBA/1J mice twice, and 5 weeks later (about 13-week-old), the mice were used in imaging tests. Arthritis degree of the paw was quantified by scoring.
Nuclear medicine imaging was measured by using an Inveon PET/CT system of Siemens Healthcare, and optical imaging was measured by using IVIS spectrum CT equipment. Cherenkov radiation emitted from ^64Cu was measured by using a highly sensitive CCD (charge-coupled device) camera.
Imaging was measured for 1 minute to 5 minutes, and a radiation dose was about 50 μCi to 2000 μCi, and photographs were variously taken as needed, such as immediately after first injection, at 1 hour, 4 hours, and 24 hours later.

[1] = Hydrogen sulfide selectivity test: decomplexation by ATB 337; type: physicochemical; conditions: ATB 337 (100 μM); 37° C. for 15 minutes
Protocol: (§1) In addition to hydrogen sulfide, many different anions, radicals, etc. exist in the body. Therefore, to examine selective reactivity of the ^64Cu-labeled complex compound according to the present disclosure for sulfide ions, the following experiment was performed.
(§2) About 45 μCi-55 μCi of the ^64Cu-labeled complex compound (250 μL of triple distilled water) was mixed with 100 μM of various anion solutions (250 μL of triple distilled water) including biothiol, and stirred at 37° C. for 15 minutes.
(§3) Formation of copper sulfide (^64CuS) was quantified by using a radio-TLC scanner.
(§4) Various biothiol or salt solutions were prepared by dissolving the compounds in triple distilled water.
(§5) In Table, concentrations of all biothiols and other competitive materials are 100 μM. Further, specific concentrations of biothiols, anions, and oxidants used in Table are as follows: [L-Cys (1 mM); L-Hcys (10 mM); GSH (10 mM); DL-dithiothretitol (DTT, 100 μM); L-ascorbic acid (L-AsA, 10 mM); 2-mercaptoethanol (2-ME, 10 mM); NaCl (10 mm); KI (1 mM); Na2S2O3 (1 mM); Na2S2O5 (1 mM); NaOAc (1 mM); H2O2 ([…]); NaClO4 (100 μM); NaHCO3 (100 μM); NaNO2 ([…]); NaN3 (100 μM); ATB 337 (100 μM); diallyl trisulphide (100 μM)].

[2] = Hydrogen sulfide selectivity test: decomplexation by NaCl; type: physicochemical; conditions: 100 μM or NaCl (10 mm), 37° C. for 15 minutes
Protocol: as §1, §2, §3, §4, §5

[3] = Imaging study of hydrogen sulfide in normal rat (PET); type: in vivo; conditions: PET image before excision of the tongue
Description: PET images were obtained after injecting the ^64Cu-labeled complex compound of Example 1 into a normal rat, and PET images were obtained again after excision of the tongue thereof. […] However, after excision (B), the uptake was decreased in the same site. […] (C) is a photograph taken before imaging the tongue after excision.

EMT6 tumor = assay: Imaging study in EMT6 tumor model (PET); type: in vivo, BALB/c female mouse
Description: To prepare an EMT6 tumor model, the number of cells was counted using a haemacytometer, and 2×10^5 cells were subcutaneously injected into the right flank and left shoulder region of BALB/c female mouse. About 2˜3 weeks later, when formation of about 1 cm of tumor was observed, the mice were used in subsequent experiments.
(§6) PET images were obtained after injecting the ^64Cu-labeled complex compound of Example 1 into the prepared rat model having EMT6 tumor and rat model having CT26 tumor.

[4] = Hydrogen sulfide selectivity test: decomplexation by ME; type: physicochemical; conditions: 2-mercaptoethanol; 100 μM or (2-ME, 10 mM); 37° C. for 15 minutes
Protocol: as §1, §2, §3, §4, §5

Pancreatitis model = assay: Imaging study in pancreatitis model; type: in vivo, Balb/c mouse; conditions: optical images; PET images after excision of tissues
Protocol: Caerulein (50 μg/kg) was intraperitoneally injected into Balb/c mouse seven times at hourly intervals to prepare a pancreatitis model.
Optical images were obtained after injecting each of the ^64Cu-labeled complex compounds of Example 1 and Example 20 into the prepared rat models having pancreatitis, and PET images were obtained after excision of tissues thereof.

[5] = Test of hydrogen sulfide-specific imaging (matrigel/NaHS sites on backs of rats, optical imaging); type: in vivo
Protocol: In order to examine whether the ^64Cu-labeled complex compounds according to the present disclosure are able to selectively detect in vivo hydrogen sulfide, different materials were injected into the backs of rats, and then each ^64Cu-labeled complex compound according to the present disclosure was injected via the tail, and then selective imaging was examined by optical imaging.
Referring to FIG. 4, at the beginning of the first experiment, matrigel alone, matrigel+1 mg NaCl, matrigel+0.5 mg NaHS, and matrigel+0.05 mg NaHS were injected into four sites on the backs of rats, respectively. 1.8 mCi of the ^64Cu-labeled complex compound according to Example 1 was injected via the tails of rats, immediately followed by optical imaging.

[6] = Test of hydrogen sulfide detection sensitivity (% decomplexation with NaHS, radio-TLC); type: physicochemical; conditions: for % decomplexation: 37° C. for 15 minutes
Protocol: To measure hydrogen sulfide detection sensitivity of the ^64Cu-labeled complex compound according to the present disclosure, the following experiment was performed.
About 45 μCi-55 μCi of ^64Cu-labeled complex compound (250 μL of triple distilled water) was mixed with various concentrations of NaHS solution (250 µL of triple distilled water), and stirred at 37° C. for 15 minutes (a total volume used in the reaction was equally 500 μL). After completion of the reaction, the resulting products were strongly stirred to mix appropriately.
Formation of copper sulfide (^64CuS) was confirmed by quantification of % decomplexation by using a radio-TLC scanner, and results are shown in the following Tables 2 and 3.

[7] = Hydrogen sulfide selectivity test: decomplexation by Cys; type: physicochemical; conditions: 100 μM or L-Cys (1 mM), 37° C. for 15 minutes
Protocol: as §1, §2, §3, §4, §5

CT26 tumor = assay: Imaging study in CT26 tumor model (PET); type: in vivo, BALB/c mouse
Description: To prepare a CT26 tumor model, the number of cells was counted using a haemacytometer, and 5×10^6 cells were subcutaneously injected into the right flank of BALB/c mouse. About 10 days later, when formation of about 1 cm of tumor was observed, the mice were used in subsequent experiments.
as §6

Sepsis model = assay: Imaging study in sepsis model (PET); type: in vivo, ICR mice
Description: After the lower abdominal region of ICR mice was opened, a small puncture in the appendix was made by using a syringe needle to prepare an acute sepsis model.
PET images were obtained after injecting the ^64Cu-labeled complex compound of Example 20 into the prepared rat model having sepsis.

| SMILES | Decomplexation [%] [1] [%] | Decomplexation [%] [2] [%] | Decomplexation [%] [4] [%] | uptake in the pancreas (Pancreatitis model) | % decomplexation ([6]; NaHS 0 μM) [%] | % decomplexation ([6]; NaHS 1 μM) [%] | % decomplexation ([6]; NaHS 10 μM) [%] | % decomplexation ([6]; NaHS 15 μM) [%] | % decomplexation ([6]; NaHS 20 μM) [%] | % decomplexation ([6]; NaHS 50 μM) [%] | % decomplexation ([6]; NaHS 100 μM) [%] | Decomplexation [%] [7] [%] | other results |
| --- | --- | --- | --- | --- | --- | --- | --- | --- | --- | --- | --- | --- | --- |
| C1C[N]2CC[N]3CC[N]4CC[N]1[64Cu]243 [Example 1, ^64Cu-labeled cyclen] | 0.7 ± 0.4 | 0.2 ± 0.0 | 0.5 ± 0.1 | high uptakes | 0 | 3 | 11 | 63 | 95 | 100 | 100 | 0.5 ± 0.1 | uptake in the joint region (Arthritis model): selective uptake in the joint region; uptake in the tongue [3]: high uptake was observed in the tongue; uptake in the tumor region versus background (EMT6 tumor): higher uptake was observed in the tumor region; optical imaging signals at four injected sites (matrigel alone, +NaCl, +0.5 mg NaHS, +0.05 mg NaHS) ([5]; 1.8 mCi via the tails of rats, imaging immediately): signals were detected only in the lower two sites injected with NaHS; optical imaging signals at four injected sites (matrigel alone, +NaCl, +0.5 mg NaHS, +0.05 mg NaHS) ([5]; after 4 hours): signals were still detected only in the lower two sites; sensitivity for hydrogen sulfide (lowest detectable concentration), in words ([6]; comparison among tested complexes): most excellent sensitivity for hydrogen sulfide; uptake in the tumor region versus background (CT26 tumor): higher uptake was observed in the tumor region |
| C1C[N]2CC[N]3CC[N]1[64Cu]23 [Example 20, ^64Cu-labeled TACN] | 0.7 ± 0.2 | 0.5 ± 0.0 | 0.4 ± 0.0 | high uptakes | 0 | 0 | 9 | 11 | 13.5 | 24.6 | 54.4 | 0.8 ± 0.3 | uptake in the lung (Sepsis model): increased uptake was observed in the lung; uptake throughout the body (Sepsis model): uptake was increased throughout the body |
